# Data taken from PubChem BioAssay (NCI).
#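 Exposure lasted 48 hours, with cells grown in 96-well plates and compounds tested at five concentrations. At the TGI there is no net growth.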
# Key:
# Assay in all cases: NCI-60 cell line screen, 48 h
# UO-31 renal = test system: UO-31 renal
# MOLT-4 leukemia = test system: MOLT-4 leukemia
# SF-268 CNS = test system: SF-268 CNS
# HCC-2998 colon = test system: HCC-2998 colon
# HOP-62 NSCLC = test system: HOP-62 NSCLC
# HL-60(TB) leukemia = test system: HL-60(TB) leukemia
# HT29 colon = test system: HT29 colon
# HCT-15 colon = test system: HCT-15 colon
# A498 renal = test system: A498 renal
# T-47D breast = test system: T-47D breast
# SK-OV-3 ovarian = test system: SK-OV-3 ovarian
# SNB-75 CNS = test system: SNB-75 CNS
# SN12C renal = test system: SN12C renal
# CCRF-CEM leukemia = test system: CCRF-CEM leukemia
# SK-MEL-28 melanoma = test system: SK-MEL-28 melanoma
# MCF7 breast = test system: MCF7 breast
# HCT-116 colon = test system: HCT-116 colon
# MDA-N = test system: MDA-N
# RPMI-8226 leukemia = test system: RPMI-8226 leukemia
# MDA-MB-231 breast = test system: MDA-MB-231 breast
# K-562 leukemia = test system: K-562 leukemia
# MALME-3M melanoma = test system: MALME-3M melanoma
# NCI-H522 lung = test system: NCI-H522 lung
# MDA-MB-435 = test system: MDA-MB-435
# ACHN renal = test system: ACHN renal
# SF-539 CNS = test system: SF-539 CNS
# UACC-62 melanoma = test system: UACC-62 melanoma
# SR leukemia = test system: SR leukemia
# M14 melanoma = test system: M14 melanoma
# EKVX NSCLC = test system: EKVX NSCLC
# U251 CNS = test system: U251 CNS
# DU-145 prostate = test system: DU-145 prostate
# SF-295 CNS = test system: SF-295 CNS
# LOX IMVI melanoma = test system: LOX IMVI melanoma
# CAKI-1 renal = test system: CAKI-1 renal
# COLO 205 colon = test system: COLO 205 colon
# KM12 colon = test system: KM12 colon
# OVCAR-4 ovarian = test system: OVCAR-4 ovarian
# SW-620 colon = test system: SW-620 colon
# 786-0 renal = test system: 786-0 renal
# IGROV1 ovarian = test system: IGROV1 ovarian
# HOP-92 NSCLC = test system: HOP-92 NSCLC
# TK-10 renal = test system: TK-10 renal
# NCI-H23 lung = test system: NCI-H23 lung
# A549 NSCLC = test system: A549 NSCLC
# UACC-257 melanoma = test system: UACC-257 melanoma
# SK-MEL-5 melanoma = test system: SK-MEL-5 melanoma
# RXF 393 renal = test system: RXF 393 renal
# PC-3 prostate = test system: PC-3 prostate
# OVCAR-8 ovarian = test system: OVCAR-8 ovarian
structure (smiles),measurement,setting,value
CCCCCOP(=O)(OCCCCC)C(NC(C)=O)(C(=O)OCC)C(F)(F)F (stereo not given),TGI,UO-31 renal,> 100 µM
same,TGI,MOLT-4 leukemia,> 100 µM
same,TGI,SF-268 CNS,> 100 µM
same,TGI,HCC-2998 colon,> 100 µM
same,TGI,HOP-62 NSCLC,> 100 µM
same,TGI,HL-60(TB) leukemia,> 100 µM
same,TGI,HT29 colon,> 100 µM
same,TGI,HCT-15 colon,> 100 µM
same,TGI,A498 renal,> 100 µM
same,TGI,T-47D breast,> 100 µM
same,TGI,SK-OV-3 ovarian,> 100 µM
same,TGI,SNB-75 CNS,> 100 µM
same,TGI,SN12C renal,> 100 µM
same,TGI,CCRF-CEM leukemia,> 100 µM
same,TGI,SK-MEL-28 melanoma,> 100 µM
same,TGI,MCF7 breast,> 100 µM
same,TGI,HCT-116 colon,> 100 µM
same,TGI,MDA-N,> 100 µM
same,TGI,RPMI-8226 leukemia,> 100 µM
same,TGI,MDA-MB-231 breast,> 100 µM
same,TGI,K-562 leukemia,> 100 µM
same,TGI,MALME-3M melanoma,> 100 µM
same,TGI,NCI-H522 lung,> 100 µM
same,TGI,MDA-MB-435,> 100 µM
same,TGI,ACHN renal,> 100 µM
same,TGI,SF-539 CNS,> 100 µM
same,TGI,UACC-62 melanoma,> 100 µM
same,TGI,SR leukemia,> 100 µM
same,TGI,M14 melanoma,> 100 µM
same,TGI,EKVX NSCLC,> 100 µM
same,TGI,U251 CNS,> 100 µM
same,TGI,DU-145 prostate,> 100 µM
COC(=O)CSc1[nH]c2nc(C)nc(Nc3ccccc3)c2c1C#N,TGI,MOLT-4 leukemia,> 10 µM
same,TGI,SF-295 CNS,> 10 µM
same,TGI,SF-268 CNS,> 10 µM
same,TGI,HCC-2998 colon,> 10 µM
same,TGI,HOP-62 NSCLC,> 10 µM
same,TGI,LOX IMVI melanoma,> 10 µM
same,TGI,CAKI-1 renal,> 10 µM
same,TGI,COLO 205 colon,> 10 µM
same,TGI,HL-60(TB) leukemia,> 10 µM
same,TGI,KM12 colon,> 10 µM
same,TGI,OVCAR-4 ovarian,> 10 µM
same,TGI,SW-620 colon,> 10 µM
same,TGI,786-0 renal,> 10 µM
same,TGI,HT29 colon,> 10 µM
same,TGI,IGROV1 ovarian,> 10 µM
same,TGI,HOP-92 NSCLC,> 10 µM
same,TGI,HCT-15 colon,> 10 µM
same,TGI,TK-10 renal,> 10 µM
same,TGI,T-47D breast,> 10 µM
same,TGI,SK-OV-3 ovarian,> 10 µM
same,TGI,SNB-75 CNS,> 10 µM
same,TGI,SN12C renal,> 10 µM
same,TGI,CCRF-CEM leukemia,> 10 µM
same,TGI,SK-MEL-28 melanoma,> 10 µM
same,TGI,MCF7 breast,> 10 µM
same,TGI,MDA-N,> 10 µM
same,TGI,RPMI-8226 leukemia,> 10 µM
same,TGI,MDA-MB-231 breast,> 10 µM
same,TGI,K-562 leukemia,> 10 µM
same,TGI,MALME-3M melanoma,> 10 µM
same,TGI,MDA-MB-435,> 10 µM
same,TGI,NCI-H23 lung,> 10 µM
same,TGI,A549 NSCLC,> 10 µM
same,TGI,UACC-257 melanoma,> 10 µM
same,TGI,SK-MEL-5 melanoma,> 10 µM
same,TGI,RXF 393 renal,> 10 µM
same,TGI,UACC-62 melanoma,> 10 µM
same,TGI,SR leukemia,> 10 µM
same,TGI,PC-3 prostate,> 10 µM
same,TGI,M14 melanoma,> 10 µM
same,TGI,EKVX NSCLC,> 10 µM
same,TGI,OVCAR-8 ovarian,> 10 µM
same,TGI,DU-145 prostate,> 10 µM
